How the values were obtained:
[1] = tested on: MCF-7 breast cancer cells; details: MCF-7 cells, Singh et al. 1995, cited from earlier work
[2] = tested on: IL-6 plus IL-6sR stimulated aromatase activity; test: IL-6 plus IL-6sR stimulated aromatase activity in fibroblasts derived from normal breast tissue; type: cell-based; details: Arohib 125 μM added 3 h prior to IL-6 50 ng/ml + IL-6sR 100 ng/ml, serum-free medium
Method: Aromatase activity was assessed in primary cultures of stromal fibroblasts derived from sub-cutaneous adipose tissue. Cells were grown until 80% confluent when they were washed with Earle's balanced salt solution (5 ml) and cultured for 24 h in phenol red-free, serum-free Eagle's minimum essential medium. Experimental media were then added in the presence of dexamethasone (100 nmol/l), IL-6 (50 ng/ml, Bachem, Cambridge, U.K.), or IL-6 plus IL-6sR (250 ng/ml, R & D System Europe Ltd., Abingdon, U.K.) and incubated for a further 48 h.
Aromatase activity was assayed in intact fibroblast monolayers by measuring the production of hu 3H2O from [1β-^3H] androstenedione (15-30 Ci/mmol, NEN-DuPont, Stevenage, U.K.) over a 20 h period (Newton et al., 1986). Aromatase activity measured under these conditions was linear with respect to time for up to 20 h (Macdiarmid et al., 1994). Cell number was determined by counting cell nuclei using a Coulter counter.
To examine the ability of Arohib to block the interaction of IL-6sR with gp130, fibroblasts were derived from normal breast tissue and cultured in growth medium containing fetal calf serum. When cells were 80% confluent, this medium was removed and replaced with serum-free medium. Cells were then treated as shown below with the results illustrated in FIG. 2.

aromatase activity = details: IL-6 stimulated fibroblasts derived from sub-cutaneous adipose tissue; Singh et al. 1995; cited from earlier work

C[C@]12CC[C@@H]3c4ccc(O)cc4CC[C@H]3[C@@H]1CC[C@@H]2O [Oestradiol, oestradiol]
effect on IL-6sR release [1]: markedly increased

TNFα
effect on IL-6sR release [1]: markedly increased

4-hydroxytamoxifen [4-OHT]
effect on oestradiol-induced increase of IL-6sR release ([1]; with oestradiol): blocked the ability of oestradiol to increase IL-6sR release | effect on IL-6sR release [1]: small stimulatory effect

YRLRFELRYRAERSKT (PEPTIDE (1)..(16) sequence of a synthetic peptide corresponding to the regulatory site residues 249-264 of interleukin-6 receptor (IL-6R)) [Arohib, 16 amino acid peptide based upon part of the IL-6R external domain]
reduction in the ability of IL-6/IL-6sR to stimulate aromatase activity [2]: 67%

IL-6: cytokine interleukin-6
aromatase activity (in words) (aromatase activity): Significant arbmatase activity was detectable

Source: patent US6384193B1, “Agents for the regulation of oestrogen synthesis” (Imperial College of Science Technology and Medicine, priority 1996, dated 2002)
